ChEMBL document CHEMBL1201862, “PubChem BioAssay data set” (2004)
Active and inactive are the calls of the source.

How the values were obtained:
[1] = Trypanosoma cruzi growth suppression in host cells – NIH3T3 host cells, beta-gal luminescence, confirmation (AID 2044); format: functional, cell-based;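 further: intracellular parasites grown in NIH/3T3 mouse fibroblasts as host cells; luminescent beta-galactosidase reporter signal from transgenic T. cruzi replicating inside host cells; inhibitors lower the luminescence signal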
[2] = NIH3T3 cell viability loss – ATP luminescence, mouse fibroblasts, counter-screen, dose response (AID 2010); format: functional, cell-based;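 further: cells exposed to compound for about 90 hours before reading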
Cytochrome P450 2C19 = Cytochrome P450 2C19 (Homo sapiens, UniProt P33261); assay: Cytochrome panel assay with activity outcomes. Panel member name: p450-cyp2c19 Compounds with AC50 equal or less than 10 uM are considered active; format: functional; settings: read-out: AC50
[3] = target: T1, Corticotropin-releasing factor receptor 2/Corticotropin-releasing factor-binding protein (Homo sapiens, UniProt P24387+Q13324); assay: activators of CRF receptor 2 with binding protein – uHTS hits, confirmation (AID 602473); format: functional; settings: read-out: EC50_Mean
T1 sequence (Q13324 whole entry): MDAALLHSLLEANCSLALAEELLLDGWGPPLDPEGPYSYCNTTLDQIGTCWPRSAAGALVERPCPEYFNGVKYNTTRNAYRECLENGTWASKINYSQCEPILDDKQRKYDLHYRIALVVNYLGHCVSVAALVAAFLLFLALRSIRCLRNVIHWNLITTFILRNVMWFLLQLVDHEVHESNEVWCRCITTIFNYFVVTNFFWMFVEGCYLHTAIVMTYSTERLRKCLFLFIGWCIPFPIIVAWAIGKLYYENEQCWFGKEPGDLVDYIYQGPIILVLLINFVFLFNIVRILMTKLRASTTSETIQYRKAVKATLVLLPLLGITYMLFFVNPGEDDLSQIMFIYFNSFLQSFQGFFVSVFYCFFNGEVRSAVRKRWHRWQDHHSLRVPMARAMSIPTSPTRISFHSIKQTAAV
T1 sequence (P24387 whole entry): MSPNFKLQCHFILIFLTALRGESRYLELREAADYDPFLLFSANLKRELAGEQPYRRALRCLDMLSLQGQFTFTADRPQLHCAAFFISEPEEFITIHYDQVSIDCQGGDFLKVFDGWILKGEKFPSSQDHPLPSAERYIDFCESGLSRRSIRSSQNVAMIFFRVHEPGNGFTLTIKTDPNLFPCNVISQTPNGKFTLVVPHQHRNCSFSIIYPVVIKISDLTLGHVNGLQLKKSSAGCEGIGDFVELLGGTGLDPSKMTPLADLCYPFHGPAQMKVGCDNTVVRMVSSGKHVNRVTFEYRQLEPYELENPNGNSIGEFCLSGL

Cytochrome P450 2C9 = Cytochrome P450 2C9 (Homo sapiens, UniProt P11712)
Chain of Cytochrome P450 2C9 (P11712 whole entry): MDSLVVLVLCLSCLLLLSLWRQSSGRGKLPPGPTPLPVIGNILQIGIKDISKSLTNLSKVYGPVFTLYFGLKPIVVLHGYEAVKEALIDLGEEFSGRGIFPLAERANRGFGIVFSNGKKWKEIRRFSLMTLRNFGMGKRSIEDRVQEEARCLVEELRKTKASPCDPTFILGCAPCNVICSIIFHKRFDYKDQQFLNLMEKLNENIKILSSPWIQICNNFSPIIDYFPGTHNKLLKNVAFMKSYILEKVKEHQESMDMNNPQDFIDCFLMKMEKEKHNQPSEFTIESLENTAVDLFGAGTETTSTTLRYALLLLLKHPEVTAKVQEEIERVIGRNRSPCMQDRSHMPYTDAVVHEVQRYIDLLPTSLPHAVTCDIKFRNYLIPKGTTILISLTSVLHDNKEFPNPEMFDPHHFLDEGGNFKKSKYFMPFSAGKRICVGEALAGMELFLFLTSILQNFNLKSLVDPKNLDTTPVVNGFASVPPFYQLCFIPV

Chain of Cytochrome P450 2C19 (P33261 whole entry): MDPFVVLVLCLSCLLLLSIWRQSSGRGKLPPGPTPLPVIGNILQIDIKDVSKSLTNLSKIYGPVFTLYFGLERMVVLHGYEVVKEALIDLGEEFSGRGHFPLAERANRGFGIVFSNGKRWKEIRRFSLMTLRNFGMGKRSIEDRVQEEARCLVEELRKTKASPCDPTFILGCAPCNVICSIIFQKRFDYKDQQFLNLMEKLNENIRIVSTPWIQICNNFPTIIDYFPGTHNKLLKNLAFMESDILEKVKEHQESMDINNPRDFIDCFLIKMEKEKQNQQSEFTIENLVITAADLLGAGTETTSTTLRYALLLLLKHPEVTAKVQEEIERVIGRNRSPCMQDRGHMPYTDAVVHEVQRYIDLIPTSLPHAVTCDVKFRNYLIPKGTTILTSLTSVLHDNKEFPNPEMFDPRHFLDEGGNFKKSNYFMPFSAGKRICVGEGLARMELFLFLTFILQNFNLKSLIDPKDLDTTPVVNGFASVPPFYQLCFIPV

| SMILES | EC50 [1] | EC50 [2] | further results |
| --- | --- | --- | --- |
| COC(=O)c1[nH]c2ccccc2c1NC(=O)CN1CCCc2ccccc21 | 0.89 µM (active) | > 60 µM (not active) |  |
| CC(C)CN(C(=O)c1cc([N+](=O)[O-])cc([N+](=O)[O-])c1)C1CCS(=O)(=O)C1 (centres undefined) | 1.31 µM (active) | > 30 µM (not active) |  |
| Cc1c(C(=O)Nc2cccc(Cl)c2)c2ccccn2c1CCc1ccncc1 | 1.19 µM (active) | > 30 µM (not active) |  |
| COc1ccc(CN2CCN(Cc3nc4ccccc4s3)CC2CCO)c(C)c1C (centres undefined) | 0.132 µM (active) | > 60 µM (inconclusive) |  |
| Cc1nn(Cc2ccc(Cl)cc2)c(C)c1NC(=O)CCCn1nc([N+](=O)[O-])c(Cl)c1C | 0.318 µM (active) | > 30 µM (not active) |  |
| Cc1cccc(OCC(=O)N2CCC(N3CCCCCC3)CC2)c1 |  |  | AC50 (Cytochrome P450 2C19): 39.8 µM (inconclusive) |
| O=C(CSc1nc(=O)n2ccccc2n1)N1N=C(c2cccs2)CC1c1ccc(F)cc1 (centres undefined) | 1.51 µM (active) | > 60 µM (not active) |  |
| COCC(=O)N1CCC2(CC1)CCN(c1cccc(-c3ccccc3)c1)CC2 |  |  | AC50 (Cytochrome P450 2C19): 39.8 µM (inconclusive) |
| COCCCn1c(SCc2ccccc2)nc2cc(OC)c(OC)cc2c1=N | 1.69 µM (active) | 11.5 µM (active) |  |
| CN1CCN(S(=O)(=O)c2ccc3ncc(C(=O)O)c(O)c3c2)CC1 |  |  | AC50 (Cytochrome P450 2C19): 22.4 µM (inconclusive) |
| COC(=O)c1cc2c(ccn2-c2ccc(F)cc2)n1Cc1ccc(OC(C)=O)cc1 | 2.84 µM (active) | > 60 µM (not active) |  |
| O=C(Nc1ccncc1)Nc1cc(Cl)ccc1Cl | 0.469 µM (active) | > 30 µM (not active) |  |
| CCc1ccc(-n2nnnc2SCC(=O)Nc2ccc(NC(C)=O)cc2)cc1 | 2.19 µM (active) | > 60 µM (not active) |  |
| Cc1cccc2cc(CN(Cc3cccnc3)C(=O)c3ccccc3F)c(Cl)nc12 | 0.204 µM (active) | > 60 µM (not active) |  |
| COc1ccc(OC)c(CN2CCN(C(=O)CCNC(=O)c3ccc(Br)cc3)CC2)c1 | 0.563 µM (active) | > 60 µM (not active) |  |
| Cc1cc(Cl)ccc1OC(C)C(=O)Nc1ccccc1N1CCOCC1 (centres undefined) |  |  | EC50 [3]: 6 µM (active) |

| SMILES | EC50 [1] | EC50 [2] | further results |
| --- | --- | --- | --- |
| CCCC[C@H]1C[C@@H]1[C@@H]1N(P(=O)(c2ccccc2)c2ccccc2)[C@](CO)(c2ccccc2)CC12CC2 |  |  | AC50 (Cytochrome P450 2C19): 7.94 µM (inconclusive) |
| Cc1ccc(C)c(S(=O)(=O)NC(CC(C)C)C(=O)O)c1 (centres undefined) |  |  | AC50 (Cytochrome P450 2C19): 39.8 µM (inconclusive) |
| O=C(C1=C[C@@H](c2csc3ccccc23)C[C@@H](OCc2ccc(CO)cc2)O1)N1CCN(Cc2ccccc2)CC1 | 0.888 µM (active) | > 60 µM (not active) |  |
| Cc1ccc(S(=O)(=O)c2nc(NCc3ccc4c(c3)OCO4)sc2Cl)cc1 | 0.39 µM (active) | > 60 µM (not active) |  |
| Cc1ccc2c3ncn(Cc4ccco4)c(O)c-3nc2c1 |  |  | EC50 [3]: > 53 µM (inactive) |
| CC1=CC(=C(C#N)c2nc3ccccc3s2)C=C(C)N1c1ccc(F)cc1F |  |  | EC50 [3]: 10.2 µM (active) |
| Cc1ccc(C(=O)N2CCN(c3cc(O)nnc3-c3ccccc3)CC2)cc1 |  |  | AC50 (Cytochrome P450 2C9): 31.6 µM (inconclusive) |
| COCCn1c(=O)c(-c2cccc(C#N)c2)nc2cnc(Oc3ccccc3)nc21 |  |  | AC50 (Cytochrome P450 2C19): 39.8 µM (inconclusive) |
| Cc1onc(-c2ccccc2)c1CNC(=O)Nc1ccc(C(F)(F)F)cc1 | 4.33 µM (active) | > 60 µM (not active) |  |
| O=[N+]([O-])c1ccc2[nH]c(-[n+]3c(-c4ccccc4)cc(-c4ccccc4)cc3-c3ccccc3)nc2c1 | 1.18 µM (active) | > 60 µM (not active) |  |
| CC1CCN(CCOc2cc(Cl)ccc2Cl)CC1 |  |  | AC50 (Cytochrome P450 2C9): 0.891 µM (inconclusive) |
| C=CCc1cccc(/C=N/NC(=O)c2ccccc2Br)c1O | 1.72 µM (active) | 8.77 µM (active) |  |
| NC(=S)N/N=C/c1ccc(-n2nncc2-c2ccc(Cl)cc2)cc1 | 1.64 µM (active) | > 60 µM (not active) |  |
| O=C1NCCc2c1[nH]c1ccccc21 |  |  | AC50 (Cytochrome P450 2C19): 15.8 µM (inconclusive) |
| OCC[n+]1ccc(/C=C/c2c[nH]c3ccccc23)cc1 |  |  | EC50 [3]: 8.55 µM (active) |
